# Results from patent US11524011B2, “H3K27 demethylase inhibitors in pediatric and juvenile osteoporosis” (THE JOHNS HOPKINS UNIVERSITY, priority 2017, dated 2022).
# Entries after “also recorded” stand apart in the source; their conditions may differ.
# B1: GH: recombinant mouse growth hormone (protein, UniProt P06880 27-216, looked up)
# Somatotropin: FPAMPLSSLFSNAVLRAQHLHQLAADTYKEFERAYIPEGQRYSIQNAQAAFCFSETIPAPTGKEEAQQRTDMELLRFSLLLIQSWLGPVQFLSRIFTNSLMFGTSDRVYEKLKDLEEGIQALMQELEDGSPRVGQILKQTYDKFDANMRSDDALLKNYGLLSCFKKDLHKAETYLRVMKCRRFVESSCAF
# Legend:
# [1] = tested on: childhood cancer diffuse intrinsic pontine glioma; details: preclinical studies; cited from earlier work
# BALB/c mice [2] = test: GSK-J4 in glucocorticoid (MPS)-treated young BALB/c mice: body weight, tail length, bone loss (μCT), angiogenesis and osteogenesis
# Description: FIGS. 10A-10B. […] Body weight (10A) and Tail length (10B) were monitored at 2, 3, and 4 weeks after treatment. FIGS. 11A-11F. […] (11A) Representative μCT images of distal femur. Quantitative analyses of Femur length (11B), Trabecular bone volume fraction (BV/TV) (11C), trabecular number (Tb.N) (11D), trabecular thickness (Tb.Th) (11E), and trabecular separation (Tb.Sp) (11F). […] FIGS. 12A-12F. […] (12A-B) Double-immunofluorescence staining of femur sections was performed using antibodies against nestin (green) and H3K27me3 (red) (12A). Quantification of the percentage of nestin^+ cells that express H3K27me3 in the primary spongiosa (12B). Immunofluorescence staining of femur sections using antibody against osterix (Osx) (12C). Quantitative analysis of Osx^+ cells in the primary spongiosa (12D). Double-immunofluorescence staining of femur sections was performed using antibodies against CD31 (green) and endomucin (Emcn) (red) (12E). […] DAPI stains nuclei blue. Seven mice per group. GP, growth plate. PS, primary spongiosa. Mice femora were dissected, fixed overnight in 70% ethanol, and analyzed by high-resolution μCT (Skyscan 1172, Bruker MicroCT, Kontich, Belgium). We used NRecon image reconstruction software, version 1.6, (Bruker MicroCT), CTAn data-analysis software, version 1.9 (Bruker MicroCT), and CTVol 3-dimensional model visualization software, version 2.0, (Bruker MicroCT) to analyze parameters of the trabecular bone in the metaphysis and cortical bone in the mid-diaphysis. The scanner was set at 50 kVp, […]. Cross-sectional images of the distal femur were used to perform 3-dimensional histomorphometric analysis of trabecular bone. The sample area selected for analyses was a 2-mm length of the metaphyseal secondary spongiosa, originating 1.0 mm below the epiphyseal growth plate and extending caudally. Cortical morphometry was analyzed within a 600-μm long section at mid-diaphysis of the femur and included measurements of average thickness and cross-sectional area. […] Nuclei were counterstained with DAPI (Sigma).
# BALB/c mice [3] = details: MPS daily for 2 weeks; compared to controls
# Description: Four-week-old BALB/c mice were treated with methylprednisolone (MPS) or vehicle daily for 2 weeks. (8A) A schematic illustration of the steps to isolate CD144^+ vascular endothelial cells from femoral metaphyses. […] (8D-8G) Quantitative RT-PCR analysis of ki67 (8D) p16^INK4a (8E), p53 (8F), and p21^CIP1 (8G) expression in the sorted CD144^+ cells. n=3, Data are represented as mean±s.e.m. *p<0.01 as determined by Student's t-tests.
# Nestin-GFP mice [4] = test: Prednisolone treatment of early pubertal Nestin-GFP mice: cellular senescence / nestin expression in femoral primary spongiosa; type: in vivo, mouse
# Description: (§1) FIGS. 4A-4L. Cellular Senescence in Primary Spongiosa of Long Bone is Decelerated in Growth Hormone (GH)-Treated Mice and Accelerated in Prednisolone-Treated Mice. (4A-4F) Four week-old Nestin-GFP mice were treated with recombinant mouse-GH (5 mg/kg·B·W.) or Vehicle by daily intraperitoneal injection for 4 weeks. Immunofluorescence staining of femur sections were performed using antibodies against GFP (green) (4A) or Ki67 (red) (4E). Images in upper panels in (4A) and (4E) are lower power with boxes outlining the area of higher power in lower panels. Quantification of the number of GFP+ (4B) or Ki67+ (4F) cells in femoral primary spongiosa. […] (4G-4L) Two-week-old Nestin-GFP mice were treated with prednisolone (10 mg/m^2/day) or Vehicle by daily intraperitoneal injection for 2 weeks. Immunofluorescence staining of femur sections were performed using antibodies against GFP (green) (4G) or Ki67 (red) (4K). Images in upper panels in (4G) and (4K) are lower power with boxes outlining the area of higher power in lower panels. Quantification of the number of GFP+ (4H) or Ki67+ (4L) cells in femoral primary spongiosa. […] Five mice per group. […] GP, growth plate.
# (§2) For flow cytometric analysis and sorting of CD45-GFP− and CD45-GFP+ mesenchymal progenitor cells (MPCs) from femoral metaphysis, we dissected the femora free of soft tissues from Nestin-GFP mice. The epiphysis was removed and only the 3-mm-long metaphysis regions were processed. The bone was then digested with a protease solution (2 mg/mL collagenase A and 2.5 mg/mL trypsin in phosphate buffered saline [PBS]) for 20 minutes to remove the periosteum and periosteal progenitors (step I). […]
# One of the major causes of secondary osteoporosis in children is the use of glucocorticoids for treatment of underlying chronic medical problems, such as autoimmune or inflammatory disorders. […] We thus assessed whether glucocorticoid-treated early pubertal mice display premature cellular senescence in primary spongiosa by injecting mice daily with prednisolone from age 2 weeks to 4 weeks.
# Nestin-GFP mice [5] = test: Growth hormone treatment of pubertal Nestin-GFP mice: cellular senescence / nestin expression in femoral primary spongiosa; type: in vivo, mouse
# Description: as §1
# as §2, with “I). The bones were cut into small pieces and digested in the protease solution for another 1 hour (C, step II).” for “I).”
# We tested whether the progression of the cellular senescence in primary spongiosa of long bone, as indicated by loss of nestin expression, is associated with bone growth/accrual. […] We assessed changes in nestin expression in the femoral primary spongiosa in pubertal mice after administration of recombinant GH. […]
# [6] = MPS plus GSK-J4 10 mg/kg b.w. daily for 4 weeks, compared to MPS alone and to controls
# [7] = summary statement, glucocorticoid-treated mice
molecule,measurement,setting,value
"CCOC(=O)CCNc1cc(N2CCc3ccccc3CC2)nc(-c2ccccn2)n1 [GSK-J4, N-[2-(2-Pyridinyl)-6-(1,2,4,5-tetrahydro-3H-3-benzazepin-3-yl)-4-pyrimidinyl]-β-alanine ethyl ester]",growth of childhood cancer diffuse intrinsic pontine glioma,[1],effectively inhibit
same,"bone loss phenotype induced by MPS (μCT of distal femur: femur length, BV/TV, Tb.N, Tb.Th, Tb.Sp)","BALB/c mice [2]; MPS plus GSK-J4 10 mg/kg b.w. daily for 4 weeks, 10 mg/kg",at least partially reversed; also recorded: rescued
same,angiogenesis in femoral primary spongiosa (CD31 / Emcn fluorescence intensities),BALB/c mice [2]; [6],greatly improve
same,osteogenesis in femoral primary spongiosa (Osx+ cells),BALB/c mice [2]; [6],greatly improve
same,MPS-induced shortening of tail length,"BALB/c mice [2]; concurrent treatment, MPS plus GSK-J4 10 mg/kg b.w. daily, 2, 3 and 4 weeks",abolished
same,glucocorticoid-induced growth retardation,BALB/c mice [2]; summary statement,rescued
same,H3K27 methylation,BALB/c mice [2]; [7],elevated
same,early onset cellular senescence,BALB/c mice [2]; [7],blocked
"C[C@H]1C[C@@H]2[C@H]([C@@H](O)C[C@@]3(C)[C@H]2CC[C@]3(O)C(=O)CO)[C@@]2(C)C=CC(=O)C=C12 [MPS, methylprednisolone]",ki67 expression in sorted CD144+ cells (quantitative RT-PCR),BALB/c mice [3],less
same,p16^INK4a expression in sorted CD144+ cells (quantitative RT-PCR),BALB/c mice [3],increased
same,p21^CIP1 expression in sorted CD144+ cells (quantitative RT-PCR),BALB/c mice [3],increased
same,p53 expression in sorted CD144+ cells (quantitative RT-PCR),BALB/c mice [3],increased
same,tail length,"BALB/c mice [2]; MPS alone daily, 2, 3 and 4 weeks, compared with controls",significantly shortened
same,body weight,"BALB/c mice [2]; MPS alone daily, monitored at 2, 3 and 4 weeks after treatment",no significant effect
C[C@]12C=CC(=O)C=C1CC[C@@H]1[C@@H]2[C@@H](O)C[C@@]2(C)[C@H]1CC[C@]2(O)C(=O)CO [prednisolone],senescence of the cells in primary spongiosa,Nestin-GFP mice [4]; mice treated with prednisolone,accelerated
same,Ki67+ proliferative cells in femoral primary spongiosa,"Nestin-GFP mice [4]; prednisolone 10 mg/m^2/day daily i.p. for 2 weeks, vs vehicle",reduced
same,number of Nestin-GFP+ cells in femoral primary spongiosa (immunofluorescence staining and flow cytometry),"Nestin-GFP mice [4]; prednisolone 10 mg/m^2/day daily i.p. from age 2 weeks to 4 weeks, relative to vehicle-treated mice",significantly reduced
B1,percentage of Ki67+ proliferative cells in primary spongiosa,"Nestin-GFP mice [5]; GH 5 mg/kg daily i.p. for 4 weeks, relative to vehicle-treated mice",higher
same,senescence of the cells in primary spongiosa,Nestin-GFP mice [5]; mice treated with growth hormone,reduced
same,Nestin-GFP+ cells in primary spongiosa (immunofluorescence staining),"Nestin-GFP mice [5]; recombinant mouse-GH 5 mg/kg B.W. daily intraperitoneal injection for 4 weeks from 4 weeks of age, vs vehicle-treated mice",significantly increased
